pIC50: −log10 of the molar value.
molecular target: T1, PRMT6 (Homo sapiens, UniProt Q96LA8); experiment: PRMT6 Biochemical Assay (3H-SAM Flashplate, peptide substrate); settings: 30 min preincubation, room temperature
T1 construct: Flag-PRMT6-His; made in house; host or cells: HEK 293F cells (BacMam virus)
Text: S-adenosylmethionine (SAM), S-adenosylhomocysteine (SAH), bicine, Tween20, dimethylsulfoxide (DMSO), bovine skin gelatin (BSG), sodium butyrate and Tris(2-carboxyethyl)phosphine hydrochloride solution (TCEP) were purchased from Sigma-Aldrich at the highest level of purity possible. ^3H-SAM was purchase from American Radiolabeled Chemicals with a specific activity of 80 Ci/mmol. 384-well streptavidin Flashplates were purchased from PerkinElmer.
Peptide representative of human histone H4 residues 36-50 was synthesized with an N-terminal linker-affinity tag motif and a C-terminal amide cap by 21st Century Biochemicals. The peptide was purified by high-performance liquid chromatography (HPLC) to greater than 95% purity and confirmed by liquid chromatography mass spectrometry (LC-MS). The sequence was Biot-Ahx-[…]-amide and contained a monomethylated lysine at position 44 (SEQ ID NO.:5).
Full-length human PRMT6 (NM_018137.2) transcript clone was amplified from an HEK 293 cDNA library, incorporating a flanking 5′ sequence encoding a FLAG tag ([…]) (SEQ ID NO.:6) fused directly to Ser 2 of PRMT6 and a 3′ sequence encoding a hexa His sequence (HHHHHH) fused directly to Asp 375. The amplified gene was subcloned into pFastBacMam (Viva Biotech).
Recombinant baculovirus were generated according to Bac-to-Bac kit instructions (Life Technologies). […] Infections were carried out at 37° C. for 48 hours, harvested by centrifugation, and stored at −80° C. for purification.
Column was washed with 20 mM imidazole in the same buffer and Flag-PRMT6-His was eluted with 150 mM imidazole. Pooled fractions were dialysed against buffer Ni-A and further purified by anti-flag M2 affinity chromatography. Flag-PRMT6-His was eluted with 200 ug/ml FLAG peptide in the same buffer. Pooled fractions were dialysed in 20 mM Tris, 150 mM NaCl, 10% glycerol and 5 mM β-mercaptoethanol, pH 7.8. The purity of recovered protein was 95%.
General Procedure for PRMT6 Enzyme Assays on Peptide Substrates.
The assays were all performed in a buffer consisting of 20 mM Bicine (pH=7.6), 1 mM TCEP, 0.005% BSG, and 0.002% Tween 20, prepared on the day of use. Compounds in 100% DMSO (1 ul) were spotted into a polypropylene 384-well V-bottom plates (Greiner) using a Platemate Plus outfitted with a 384-channel head (Thermo Scientific). DMSO (1 ul) was added to Columns 11, 12, 23, 24, rows A-H for the maximum signal control and 1 ul of SAH, a known product and inhibitor of PRMT6, was added to columns 11, 12, 23, 24, rows I-P for the minimum signal control. A cocktail (40 ul) containing the PRMT6 enzyme was added by Multidrop Combi (Thermo-Fisher). The compounds were allowed to incubate with PRMT6 for 30 min at room temperature, then a cocktail (10 ul) containing SAM and peptide was added to initiate the reaction (final volume=51 ul). The final concentrations of the components were as follows: PRMT6 was 1 nM, ^3H-SAM was 200 nM, non-radiolabeled SAM was 250 nM, peptide was 75 nM, SAH in the minimum signal control wells was 1 mM, and the DMSO concentration was 2%. The assays were stopped by the addition of non-radiolabeled SAM (10 ul) to a final concentration of 400 uM, which dilutes the ^3H-SAM to a level where its incorporation into the peptide substrate is no longer detectable. 50 ul of the reaction in the 384-well polypropylene plate was then transferred to a 384-well Flashplate and the biotinylated peptides were allowed to bind to the streptavidin surface for at least 1 hour before being washed once with 0.1% Tween20 in a Biotek ELx405 plate washer. The plates were then read in a PerkinElmer TopCount plate reader to measure the quantity of ^3H-labeled peptide bound to the Flashplate surface, measured as disintegrations per minute (dpm) or alternatively, referred to as counts per minute (cpm).
Where dpm=disintegrations per minute, cmpd=signal in assay well, and min and max are the respective minimum and maximum signal controls. […]

T1 sequence (Q96LA8 with tags, fused parts or gaps): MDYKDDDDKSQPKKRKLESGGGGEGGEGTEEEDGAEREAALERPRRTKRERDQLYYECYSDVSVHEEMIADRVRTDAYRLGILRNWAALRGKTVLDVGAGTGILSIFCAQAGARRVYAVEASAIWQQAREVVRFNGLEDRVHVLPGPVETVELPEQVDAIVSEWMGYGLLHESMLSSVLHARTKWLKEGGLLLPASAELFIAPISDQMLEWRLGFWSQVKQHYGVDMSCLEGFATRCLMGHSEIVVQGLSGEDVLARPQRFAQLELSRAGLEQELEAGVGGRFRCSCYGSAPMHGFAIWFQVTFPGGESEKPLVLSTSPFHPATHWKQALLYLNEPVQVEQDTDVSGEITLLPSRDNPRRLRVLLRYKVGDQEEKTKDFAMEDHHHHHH

Structure (SMILES)	pIC50
CN(CCN)Cc1c[nH]nc1-c1ccsc1 [Compound 3]	≥ 7.00
CN(CCN)Cc1c[nH]nc1-c1cccs1 [Compound 5]	6.00 to 7.00
CN(CCN)Cc1c[nH]nc1-c1cc[nH]n1 [Compound 14]	5.52 to 6.00
CN(CCN)Cc1c[nH]nc1-c1ccc2[nH]ncc2c1 [Compound 27, N^1-((3-(1H-indazol-5-yl)-1H-pyrazol-4-yl)methyl)-N^1-methylethane-1,2-diamine]	≥ 7.00
CN(CCN)Cc1c[nH]nc1-c1cccc2[nH]ncc12 [Compound 30]	≥ 7.00
CN(CCN)Cc1c[nH]nc1-c1ccnn1C [Compound 15]	5.52 to 6.00
COc1ncc(-c2n[nH]cc2CN(C)CCN)cn1 [Compound 11]	6.00 to 7.00
CN(CCN)Cc1c[nH]nc1-c1ccc2scnc2c1 [Compound 9]	≥ 7.00
CN(CCN)Cc1c[nH]nc1-c1cnc(C2CC2)nc1 [Compound 28]	6.00 to 7.00
Cc1noc(C)c1-c1n[nH]cc1CN(C)CCN [Compound 10]	≤ 5.00
CN(CCN)Cc1c[nH]nc1-c1ccoc1 [Compound 7]	6.00 to 7.00
Cc1n[nH]c(C)c1-c1n[nH]cc1CN(C)CCN [Compound 25]	≤ 5.00
CN(CCN)Cc1c[nH]nc1-c1cn[nH]c1 [Compound 12]	6.00 to 7.00
CN(CCN)Cc1c[nH]nc1-c1ccco1 [Compound 6]	6.00 to 7.00
CN(CCN)Cc1c[nH]nc1-c1ccc[nH]1 [Compound 29]	5.52 to 6.00
CN(CCN)Cc1c[nH]nc1-c1cncnc1 [Compound 4]	6.00 to 7.00
CN(CCN)Cc1c[nH]nc1-c1cnc2[nH]ccc2c1 [Compound 13]	≥ 7.00

The next lines start with the values.

pIC50	Structure (SMILES)
≥ 7.00	CN(CCN)Cc1c[nH]nc1-c1ccc2ncnn2c1 [Compound 20]
≥ 7.00	CN(CCN)Cc1c[nH]nc1-c1cnn(CCO)c1 [Compound 18]
≥ 7.00	CN(CCN)Cc1c[nH]nc1-c1cnn(-c2ccccc2)c1 [Compound 17]
≥ 7.00	CN(CCN)Cc1c[nH]nc1-c1cnn(C)c1 [Compound 8]
≥ 7.00	CN(CCN)Cc1c[nH]nc1-c1cnn(Cc2ccccc2)c1 [Compound 24, N^1-((1′-benzyl-3,4′-bi(1H-pyrazol)-4-yl)methyl)-N^1-methylethane-1,2-diamine]
≥ 7.00	CN(CCN)Cc1c[nH]nc1-c1ccc2cnn(C)c2c1 [Compound 19, N^1-methyl-N^1-((3-(1-methyl-1H-indazol-6-yl)-1H-pyrazol-4-yl)methyl)ethane-1,2-diamine]
≥ 7.00	CC(C)Cn1cc(-c2n[nH]cc2CN(C)CCN)cn1 [Compound 23, N^1-((2′-isobutyl-3,4′-bi(1H-pyrazol)-4-yl)methyl)-N^1-methylethane-1,2-diamine]
≥ 7.00	CN(CCN)Cc1c[nH]nc1-c1ccc2nccn2c1 [Compound 21, N^1-((3-(imidazo[1,2-a]pyridin-6-yl)-1H-pyrazol-4-yl)methyl)-N^1-methylethane-1,2-diamine]
≥ 7.00	CCn1cc(-c2n[nH]cc2CN(C)CCN)cn1 [Compound 16]
≥ 7.00	CC(C)n1cc(-c2n[nH]cc2CN(C)CCN)cn1 [Compound 22]
